Data from patent publication EP1028734B1, “USE OF SPECIFIC STEADY-STATE R-TYPE CALCIUM CHANNEL BLOCKERS” (priority 1997, dated 1999).
Entries after “also recorded” stand apart in the source; their conditions may differ.

What was measured:
[1] = system: TTX-sensitive fast Na^+ current; test: whole-cell voltage clamp, TTX-sensitive fast Na+ current in single heart cell (MV8608); assay type: cell-based; settings: 10^-11M to 10^-7M, n=5
Procedure: (§1) Single cells of different types in culture were prepared from biopsies of human, chick and rabbit. Known and accepted methods for the isolation of fast Na^+ current, T, L and R-type Ca^2+ channels as well as delayed outward K^+ current were used (Bkaily 1994, supra).
(§2) The compounds to be tested are added to the appropriate extracellular solution after recording a stable ionic current or normal steady-state level of [Ca]n and [Ca]n The effect of different concentrations of compounds are tested on the different type of current and [Ca]i of the different cell types. The effect of each concentration of the compounds in function of the time of exposure are then determined. Once the steady-state effect is reached, the second concentration is added, etc.
In one series of experiments (n=5), the effect of different concentrations of MV8608 (10^-11M to 10^-7M) on the TTX-sensitive fast Na^+ current were tested using the whole-cell voltage clamp technique and experimental conditions reported elsewhere (Bkaily et al., 1988, supra; 1993, supra).

[2] = system: T-type Ca^2+ current; test: whole-cell voltage clamp, T-type Ca2+ current in heart cells; assay type: cell-based; settings: 10^-9M to 10^-7M, n=7
Procedure: as §1, §2
In another series of experiments (n=7), the effect of different concentrations of MV8608 were tested on the T-type Ca^2+ current (lCa) using the whole-cell voltage clamp technique and classical experimental conditions described elsewhere by the inventors (Bkaily G. et al., 1991, supra; 1992, supra; 1993, supra). […] As it can be seen in that figure, the inset effect of MV8608 in T-type ICa is immediate.

[3] = system: R-type Ca^2+ channel; test: cell attached single channel patch clamp, R-type Ca2+ channel in human aortic vascular smooth muscle cell line; assay type: cell-based
Procedure: Also, for the R-type Ca^2+ channel current, the effect of the compounds are tested on the R-type Ca^2+ channel amplitude, voltage dependency and probability of opening, by using the cell-attached patch clamp technique (Bkaily 1994, supra; 1996, supra) and intra and extra patch pipette application of the drug.
In another series of experiments (n=7), using the cell attached patch clamp technique (Bkaily G. 1994, supra; Bkaily G. et al., 1996, supra), the effect of 10^-7M of MV8608 on the R-type Ca^2+ channel in human aortic vascular smooth muscle cell line was tested. […] In a second series of experiments (n=3), the patch pipette solution was free of MV8608 and after recording the single channel activities at different voltages, MV8608 (final concentration of 10^-7M) was applied to the extra-patch pipette solution containing 140mM KCI (where the rest of the cell is bathing). This experiment was designed to verify whether MV8608 crossed the cell membrane and if so, whether its effect from the internal side of the channel under the patch is the same as that when applied at the outer side thereof. […] Such a pattern of increase of probability of opening and the open duration accompanied with the sporadic decrease of the single channel current amplitude has never been observed when MV8608 was applied at the outer side of the single channel under the patch pipette.
In another series of experiments (n=7), the effect of 10^-7M of MV8612 was tested on the R-type Ca^2+ in human aortic VSM cells, using the single channel cell attached recording technique and intra and extra patch pipette application of drugs.
In one series of experiments (n=3), MV8612 (total concentration, 10^-7M) was only applied to the patch pipette. […] As for MV8608, in one series of experiments (n=4), MV8612 (10^-7M) was only applied to the extra-patch pipette, in order to verify if the compound penetrates into the cytosol and if so, how it affects the R-type Ca^2+ channel activity.

[4] = system: R-type Ca^2+ channel; test: Fura-2 total [Ca]i measurement, sustained increase of [Ca]i via stimulation of R-type Ca2+ channels; assay type: cell-based, chick, human, rabbit
Description: This sustained increase of Ca^2+ induced by depolarization of the cell membrane or hormones such as PAF, ET-1 and bradykinin is due to the increase of Ca^2+ influx through the R-type Ca^2+ channels at the sarcolemmal membrane and/or the nuclear membrane (Bkaily G., 1994, supra; 1996, supra; 1997a-d, supra). Using Ca^2+ fluorescence probes Fura-2 or Fluo-3 and 2 and three-dimension Ca^2+ imaging techniques (Bkaily G., 1994, supra; 1996, supra; 1997a-d, supra), the effect of hormones and drugs could be easily tested. These two methods are used with single cells of different types as described above. […]
Using Fura-2 [Ca]i measurement technique, in one series of experiments we tested the effect of MV8612 (10^-9M) on the stimulation of R-type Ca^2+-induced sustained increase of [Ca]i by sustained depolarization (Figures 26 and 27), PAF (10^-9M, Figure 34) and ET-1 (Figures 33 and 34).

[5] = system: R-type Ca^2+ channel; test: confocal Fluo-3 3-dimension measurement of cytosolic [Ca]c and nuclear [Ca]n; assay type: cell-based, chick, human
[6] = system: double-perfused mesenteric bed of the rat; test: double-perfused mesenteric bed of the rat
Description: The inhibitory properties of MV8608 are specific for PAF as the response to ACh (arterial) and Angll (venous) are unaffected by the pregnane-containing moiety.

[7] = system: human aortic vascular smooth muscle cell line; test: spontaneous proliferation of human aortic vascular smooth muscle cell line; assay type: cell-based; settings: MV8608 10^-8M, MV8612 10^-8M, nifedipine 10^-7M, Figure 28
[8] = murine model of pleurisy; assay type: in vivo, mice
Procedure: (§3) To assess further the anti-inflammatory action of MV 8612 and MV 8608, their effects against the inflammatory responses caused by several mediators of inflammation in a murine model of pleurisy were tested (Saleh et al., 1996, Br. J. Pharmacol 118:811-819). In addition, both compounds were tested against the increase of vascular permeability caused by bradykinin in the rat skin (Neves et al., 1993b, Phytotherapy Research. 7:356-362).

[9] = bradykinin-induced skin vascular permeability in rats; assay type: in vivo, rat
Procedure: as §3

[10] = system: human lymphocyte; test: human lymphocyte proliferation in vitro; assay type: cell-based; settings: MV 8612, MV 8608 14.5 to 116 M
Procedure: In a separate series of experiments, compounds MV 8612 and MV 8608 were tested to analyze whether they interfered with human lymphocyte proliferation "in vitro". These experiments were carried out as reported previously (Moraes et al., 1996, Eur. J. Pharmacol. 312:333-339).

[11] = MV 8612 30 and 60, MV 8608 30, i.p.

With “(15R, 16R, 20S)-14, 16:15,20:16,21-triepoxi-15,16-seco 14β, 17α-pregn-5-ene-3β, 15-diol [MV8608]” the “effect on the TTX-sensitive fast Na^+ current” value [1] was “no effect”, the “T-type ICa amplitude” value [2] was “no effect; also recorded: relative weak depressing effect” and the “single channel conductance of R-type Ca^2+ channel” value ([3]; 10^-7M applied in the patch pipette) was “without affecting”. For the same substance, the “single channel amplitude and probability of opening of the single R-type Ca^2+ channel” value ([3]; 10^-7M applied in the patch pipette, 10^-6M nifedipine present) was “decreased the single channel amplitude and probability of opening”, the “single channel current amplitude” value ([3]; 10^-7M applied to the extra-patch pipette solution) was “spontaneous decrease and release of the blockade” and the “opening of the R-type channel (probability, duration, frequency)” value ([3]; 10^-7M applied to the extra-patch pipette solution (140mM KCl)) was “increased the probability and duration of opening”. The “sustained increase of [Ca]i induced by 10^-7M PAF” value ([4]; 10^-6M of compound, human aortic VSM cell line (Figure 23)) was “able to block”, the “sustained increase of [Ca]i induced by 10^-7M PAF” value ([4]; 10^-9M of compound) was “failed to significantly decrease” and the “sustained increase of [Ca]i induced by sustained depolarization, ET-1 (10^-9M), PAF (10^-9M) or BK (10^-6M)” value ([4]; 10^-9M of compound) was “completely blocked”. The “time within which the block occurred” value ([4]; 10^-9M of compound) was 4 to 5 min, the “basal sustained increase of [Ca]i” value ([4]; 10^-9M, freshly isolated human aortic endothelial cells, Figure 22) was “decrease” and the “blockade of the R-type Ca^2+ channel across cell types” value ([4]; incl. MG63, FAOS-2, atherosclerotic human VSM cells, endothelial cells, T-lymphocytes, platelets (not shown), AOSMC-9) was “blocked the R-type Ca^2+ channel in all cell types used”. For the same substance, the “sustained increase of [Ca]c and [Ca]n induced with high concentration of PAF (10^-7M)” value ([5]; 10^-6M of compound, back to the control level, Figure 29B) was “significantly decrease”, the “cytosolic and nuclear Ca^2+ sustained overload induced by 30mM KCl and PAF” value ([5]; 10^-7M of compound, nifedipine present) was “blocked both the cytosolic and nuclear Ca^2+ sustained overload” and the “prevention of stimulation of the R-type Ca^2+ channel by sustained depolarization” value ([5]; 10^-8 M and 10^-7 M, dose-dependent) was “prevented”. The “prevention of high PAF (10^-7 M) action” value ([5]; 10^-9M of compound) was “succeeded in preventing”, the “sustained depolarization induced sustained increase of [Ca]c and [Ca]n” value ([5]; heart cells, Figure 29 panel A) was “blocked completely” and the “response to ACh (arterial) and AngII (venous)” value [6] was “unaffected”. For the same substance, the “PAF induced arterial vasodilatation and venconstriction” value ([6]; 1 µM, Figure 24) was “blocked”, the PAF-induced responses ([6]; concentration series) was “concentration-dependent inhibition” and the spontaneous proliferation [7] was “significantly decreased”. The “mononuclear cells influx, intrapleural PAF” value ([8]; 30, i.p.) was “antagonised significantly”, the “plasma extravasation, intrapleural PAF” value ([8]; 30, i.p.) was “antagonised significantly” and the “neutrophils cells, intrapleural carrageenan” value [8, 11] was “inhibited significantly”. For the same substance, the “total cells, intrapleural carrageenan” value [8, 11] was “inhibited significantly”, the “increase of vascular permeability caused by bradykinin in the rat skin” value [9] was “antagonised in a dose-related manner” and the human lymphocyte proliferation [10] was “graded inhibition”.
